Earlier results on one compound are cited in patent US12472160B2, “Modified-release tiopronin compositions, kits and methods for treating cystinuria and related disorders” (ALTIBIO, INC., priority 2017, dated 2025).

The conditions of data set [1]: cited from earlier work.
For data set [2] the following is noted: cited from earlier work. This is another data set of the same source.

`CC(C)(S)[C@@H](N)C(=O)O` [D-penicillamine]: in data set [1], the “solubility of di-sulfide complex relative to cystine” value is 50 times. Also, the “patients with severe side effects limiting use / who cannot tolerate the drug” value in data set [2] (human, in vivo) is given as 50-70%. The bioavailability entry in data set [2] (patients with malabsorption states, presence of antacids, or after a large meal) was “dramatically decreases”.
